Values joined by “and” are separate entries in the source; they are usually repeats but may differ in a detail not shown here. Identical values can stand only once.
Details: Hot wire method

FC(F)(F)/C=C/Cl [(E)-1-chloro-3,3,3-trifluoroprop-1-ene]
Details	thermal conductivity
423.65 K, 7612 kPa, Liquid	0.05622 W/m/K
423.65 K, 7619 kPa, Liquid	0.05627 W/m/K
423.65 K, 22720 kPa, Liquid	0.06706 W/m/K
423.66 K, 22716 kPa, Liquid	0.06723 W/m/K
423.67 K, 28114 kPa, Liquid	0.07024 W/m/K
423.69 K, 28097 kPa, Liquid	0.07022 W/m/K
423.72 K, 13391 kPa, Liquid	0.0611 W/m/K
423.72 K, 13398 kPa, Liquid	0.06111 W/m/K
423.77 K, 20045 kPa, Liquid	0.06561 W/m/K
423.77 K, 20052 kPa, Liquid	0.06562 W/m/K
423.78 K, 11664 kPa, Liquid	0.05978 W/m/K
423.79 K, 11674 kPa, Liquid	0.05981 W/m/K
423.83 K, 25690 kPa, Liquid	0.06889 W/m/K
423.84 K, 25696 kPa, Liquid	0.06888 W/m/K
423.85 K, 10139 kPa, Liquid	0.05851 W/m/K
423.86 K, 10145 kPa, Liquid	0.05848 W/m/K
423.86 K, 17471 kPa, Liquid	0.06395 W/m/K
423.87 K, 17475 kPa, Liquid	0.06396 W/m/K
423.93 K, 15376 kPa, Liquid	0.06253 W/m/K
423.93 K, 15379 kPa, Liquid	0.06254 W/m/K
423.94 K, 22691 kPa, Liquid	0.06716 W/m/K
423.95 K, 22710 kPa, Liquid	0.06724 W/m/K
424.02 K, 13386 kPa, Liquid	0.06109 W/m/K
424.02 K, 13393 kPa, Liquid	0.06113 W/m/K
451.03 K, 4240 kPa, Fluid (supercritical or subcritical phases)	0.04303 W/m/K
451.04 K, 4194 kPa, Fluid (supercritical or subcritical phases)	0.04141 W/m/K
451.04 K, 4285 kPa, Fluid (supercritical or subcritical phases)	0.0443 W/m/K
451.05 K, 4194 kPa, Fluid (supercritical or subcritical phases)	0.04138 W/m/K
451.05 K, 4285 kPa, Fluid (supercritical or subcritical phases)	0.04428 W/m/K
451.1 K, 4194 kPa, Fluid (supercritical or subcritical phases)	0.0413 W/m/K
451.11 K, 4329 kPa, Fluid (supercritical or subcritical phases)	0.04555 W/m/K
451.12 K, 4329 kPa, Fluid (supercritical or subcritical phases)	0.04569 W/m/K
451.13 K, 4146 kPa, Fluid (supercritical or subcritical phases)	0.03927 W/m/K
451.14 K, 4146 kPa, Fluid (supercritical or subcritical phases)	0.03925 W/m/K
451.15 K, 4091 kPa, Fluid (supercritical or subcritical phases)	0.03775 W/m/K
451.19 K, 4240 kPa, Fluid (supercritical or subcritical phases)	0.0441 W/m/K
451.2 K, 4146 kPa, Fluid (supercritical or subcritical phases)	0.03962 W/m/K
451.2 K, 4240 kPa, Fluid (supercritical or subcritical phases)	0.04407 W/m/K
451.21 K, 4024 kPa, Fluid (supercritical or subcritical phases)	0.03539 W/m/K
451.21 K, 4146 kPa, Fluid (supercritical or subcritical phases)	0.03961 W/m/K
451.21 K, 4329 kPa, Fluid (supercritical or subcritical phases)	0.0465 W/m/K
451.22 K, 4091 kPa, Fluid (supercritical or subcritical phases)	0.03768 W/m/K
451.22 K, 4285 kPa, Fluid (supercritical or subcritical phases)	0.04586 W/m/K
451.22 K, 4329 kPa, Fluid (supercritical or subcritical phases)	0.04642 W/m/K
451.24 K, 4335 kPa, Fluid (supercritical or subcritical phases)	0.04596 W/m/K
451.24 K, 4404 kPa, Fluid (supercritical or subcritical phases)	0.04602 W/m/K
451.25 K, 4146 kPa, Fluid (supercritical or subcritical phases)	0.03998 W/m/K
451.25 K, 4335 kPa, Fluid (supercritical or subcritical phases)	0.04625 W/m/K
451.25 K, 4404 kPa, Fluid (supercritical or subcritical phases)	0.04634 W/m/K
451.26 K, 3939 kPa, Fluid (supercritical or subcritical phases)	0.03353 W/m/K
451.27 K, 4025 kPa, Fluid (supercritical or subcritical phases)	0.03578 W/m/K
451.28 K, 4024 kPa, Fluid (supercritical or subcritical phases)	0.03519 W/m/K
451.28 K, 4091 kPa, Fluid (supercritical or subcritical phases)	0.03788 W/m/K
451.29 K, 4090 kPa, Fluid (supercritical or subcritical phases)	0.0379 W/m/K
451.3 K, 4146 kPa, Fluid (supercritical or subcritical phases)	0.04026 W/m/K
451.31 K, 4146 kPa, Fluid (supercritical or subcritical phases)	0.04022 W/m/K
451.32 K, 3831 kPa, Fluid (supercritical or subcritical phases)	0.03175 W/m/K
451.35 K, 3691 kPa, Fluid (supercritical or subcritical phases)	0.02988 W/m/K
451.35 K, 4024 kPa, Fluid (supercritical or subcritical phases)	0.03573 W/m/K
451.35 K, 4025 kPa, Fluid (supercritical or subcritical phases)	0.03528 W/m/K
451.35 K, 4091 kPa, Fluid (supercritical or subcritical phases)	0.0383 W/m/K
451.36 K, 3691 kPa, Fluid (supercritical or subcritical phases)	0.02992 W/m/K
451.36 K, 4091 kPa, Fluid (supercritical or subcritical phases)	0.03832 W/m/K
451.37 K, 4404 kPa, Fluid (supercritical or subcritical phases)	0.04741 W/m/K
451.38 K, 3649 kPa, Fluid (supercritical or subcritical phases)	0.02977 W/m/K
451.39 K, 3831 kPa, Fluid (supercritical or subcritical phases)	0.03167 W/m/K
451.4 K, 3831 kPa, Fluid (supercritical or subcritical phases)	0.03184 W/m/K
451.41 K, 3939 kPa, Fluid (supercritical or subcritical phases)	0.03376 W/m/K
451.42 K, 3508 kPa, Fluid (supercritical or subcritical phases)	0.02833 W/m/K
451.43 K, 3509 kPa, Fluid (supercritical or subcritical phases)	0.02845 W/m/K
451.44 K, 3691 kPa, Fluid (supercritical or subcritical phases)	0.02982 W/m/K
451.44 K, 4090 kPa, Fluid (supercritical or subcritical phases)	0.03859 W/m/K
451.44 K, 4091 kPa, Fluid (supercritical or subcritical phases)	0.03884 W/m/K
451.45 K, 3691 kPa, Fluid (supercritical or subcritical phases)	0.03 W/m/K
451.45 K, 4479 kPa, Fluid (supercritical or subcritical phases)	0.04701 W/m/K and 0.04717 W/m/K
451.46 K, 3650 kPa, Fluid (supercritical or subcritical phases)	0.02974 W/m/K
451.47 K, 3830 kPa, Fluid (supercritical or subcritical phases)	0.03201 W/m/K
451.47 K, 4579 kPa, Fluid (supercritical or subcritical phases)	0.04622 W/m/K
451.47 K, 4580 kPa, Fluid (supercritical or subcritical phases)	0.04624 W/m/K
451.48 K, 3651 kPa, Fluid (supercritical or subcritical phases)	0.02988 W/m/K
451.48 K, 3831 kPa, Fluid (supercritical or subcritical phases)	0.03192 W/m/K
451.5 K, 3272 kPa, Fluid (supercritical or subcritical phases)	0.02692 W/m/K
451.5 K, 3273 kPa, Fluid (supercritical or subcritical phases)	0.02709 W/m/K
451.5 K, 4908 kPa, Fluid (supercritical or subcritical phases)	0.04557 W/m/K and 0.04553 W/m/K
451.51 K, 3508 kPa, Fluid (supercritical or subcritical phases)	0.02853 W/m/K
451.51 K, 4024 kPa, Fluid (supercritical or subcritical phases)	0.03641 W/m/K
451.51 K, 4025 kPa, Fluid (supercritical or subcritical phases)	0.03631 W/m/K
451.52 K, 4479 kPa, Fluid (supercritical or subcritical phases)	0.04791 W/m/K
451.52 K, 5208 kPa, Fluid (supercritical or subcritical phases)	0.04584 W/m/K and 0.04601 W/m/K
451.53 K, 4479 kPa, Fluid (supercritical or subcritical phases)	0.04799 W/m/K
451.54 K, 3691 kPa, Fluid (supercritical or subcritical phases)	0.03 W/m/K and 0.03016 W/m/K
451.54 K, 4580 kPa, Fluid (supercritical or subcritical phases)	0.04656 W/m/K
451.55 K, 4580 kPa, Fluid (supercritical or subcritical phases)	0.04665 W/m/K
451.56 K, 3650 kPa, Fluid (supercritical or subcritical phases)	0.02992 W/m/K
451.57 K, 3650 kPa, Fluid (supercritical or subcritical phases)	0.02995 W/m/K
451.57 K, 3831 kPa, Fluid (supercritical or subcritical phases)	0.0321 W/m/K
451.58 K, 3831 kPa, Fluid (supercritical or subcritical phases)	0.0323 W/m/K
451.59 K, 4908 kPa, Fluid (supercritical or subcritical phases)	0.04582 W/m/K and 0.04575 W/m/K
451.6 K, 5208 kPa, Fluid (supercritical or subcritical phases)	0.04598 W/m/K and 0.04588 W/m/K
451.61 K, 3273 kPa, Fluid (supercritical or subcritical phases)	0.02708 W/m/K
451.61 K, 4734 kPa, Fluid (supercritical or subcritical phases)	0.046 W/m/K
451.62 K, 3273 kPa, Fluid (supercritical or subcritical phases)	0.027 W/m/K
451.62 K, 3508 kPa, Fluid (supercritical or subcritical phases)	0.02859 W/m/K
451.62 K, 3509 kPa, Fluid (supercritical or subcritical phases)	0.02863 W/m/K
451.62 K, 4579 kPa, Fluid (supercritical or subcritical phases)	0.04727 W/m/K
451.62 K, 4580 kPa, Fluid (supercritical or subcritical phases)	0.0472 W/m/K
451.62 K, 4734 kPa, Fluid (supercritical or subcritical phases)	0.0461 W/m/K
451.64 K, 3691 kPa, Fluid (supercritical or subcritical phases)	0.03032 W/m/K and 0.03035 W/m/K
451.66 K, 2992 kPa, Fluid (supercritical or subcritical phases)	0.02577 W/m/K
451.67 K, 2990 kPa, Fluid (supercritical or subcritical phases)	0.02601 W/m/K
451.67 K, 3650 kPa, Fluid (supercritical or subcritical phases)	0.02999 W/m/K
451.67 K, 4909 kPa, Fluid (supercritical or subcritical phases)	0.04592 W/m/K
451.68 K, 4909 kPa, Fluid (supercritical or subcritical phases)	0.04602 W/m/K
451.68 K, 5207 kPa, Fluid (supercritical or subcritical phases)	0.04609 W/m/K
451.69 K, 5207 kPa, Fluid (supercritical or subcritical phases)	0.04582 W/m/K
451.7 K, 4580 kPa, Fluid (supercritical or subcritical phases)	0.04772 W/m/K
451.7 K, 4734 kPa, Fluid (supercritical or subcritical phases)	0.04631 W/m/K
451.71 K, 4580 kPa, Fluid (supercritical or subcritical phases)	0.04774 W/m/K
451.71 K, 4734 kPa, Fluid (supercritical or subcritical phases)	0.04636 W/m/K
451.72 K, 3272 kPa, Fluid (supercritical or subcritical phases)	0.02716 W/m/K
451.73 K, 2617 kPa, Fluid (supercritical or subcritical phases)	0.02492 W/m/K and 0.02475 W/m/K
451.73 K, 3273 kPa, Fluid (supercritical or subcritical phases)	0.02707 W/m/K
451.74 K, 3509 kPa, Fluid (supercritical or subcritical phases)	0.02878 W/m/K and 0.02877 W/m/K
451.76 K, 4908 kPa, Fluid (supercritical or subcritical phases)	0.04609 W/m/K
451.76 K, 4909 kPa, Fluid (supercritical or subcritical phases)	0.04628 W/m/K
451.77 K, 3650 kPa, Fluid (supercritical or subcritical phases)	0.0303 W/m/K
451.77 K, 5207 kPa, Fluid (supercritical or subcritical phases)	0.0462 W/m/K
451.77 K, 5208 kPa, Fluid (supercritical or subcritical phases)	0.04621 W/m/K
451.78 K, 2992 kPa, Fluid (supercritical or subcritical phases)	0.02586 W/m/K
451.78 K, 3650 kPa, Fluid (supercritical or subcritical phases)	0.03036 W/m/K
451.79 K, 2166 kPa, Fluid (supercritical or subcritical phases)	0.02402 W/m/K
451.79 K, 2992 kPa, Fluid (supercritical or subcritical phases)	0.02587 W/m/K
451.8 K, 2167 kPa, Fluid (supercritical or subcritical phases)	0.02395 W/m/K
451.8 K, 4735 kPa, Fluid (supercritical or subcritical phases)	0.0468 W/m/K
451.85 K, 3273 kPa, Fluid (supercritical or subcritical phases)	0.02717 W/m/K and 0.02719 W/m/K
451.85 K, 3509 kPa, Fluid (supercritical or subcritical phases)	0.02883 W/m/K
451.86 K, 1669 kPa, Fluid (supercritical or subcritical phases)	0.0235 W/m/K
451.86 K, 1672 kPa, Fluid (supercritical or subcritical phases)	0.02345 W/m/K
451.87 K, 2617 kPa, Fluid (supercritical or subcritical phases)	0.02483 W/m/K
451.87 K, 2618 kPa, Fluid (supercritical or subcritical phases)	0.02473 W/m/K
451.89 K, 4734 kPa, Fluid (supercritical or subcritical phases)	0.0473 W/m/K
451.89 K, 4735 kPa, Fluid (supercritical or subcritical phases)	0.04729 W/m/K
451.91 K, 2992 kPa, Fluid (supercritical or subcritical phases)	0.02598 W/m/K
451.92 K, 2991 kPa, Fluid (supercritical or subcritical phases)	0.02605 W/m/K
451.93 K, 5207 kPa, Fluid (supercritical or subcritical phases)	0.04646 W/m/K

Source: the NIST ThermoML archive (doi:10.1021/acs.jced.7b00106)
